Laboratory results taken from paper PMC7998250, “Temperate Zone Plant Natural Products—A Novel Resource for Activity against Tropical Parasitic Diseases” (Pharmaceuticals, 2021).
Where two headings read alike, the source gives them in different places.

What was measured:
[1] = tested on: L. mexicana axenic amastigotes; assay: Concentration-response EC50, L. mexicana axenic amastigotes (WT); format: cell-based, Leishmania mexicana
Source text: Initial hits from the parasite panel screen were taken forward in log concentration versus normalised response assays to estimate the half maximal effective concentration (EC50) in hit species as well as the half maximal cytotoxic concentrations (CC50) in the human hepatoma cell line HepG2 as a preliminary test for selectivity. Using CC50/EC50 to define the selectivity index (SI), the selectivity for each compound in a defined species compared to a human cell line was estimated and compared to the EC50 (Figure 3).
EC50 values were determined by serial two-fold dilution of each compound in 96 well plates. Culture conditions and viability assays were as stated for the initial screen, with some exceptions. L. mexicana and L. donovani axenic amastigotes were seeded at 2 × 10^6 cell/s mL, T. brucei and T. evansi were seeded at 2 × 10^5 cells/mL. For cytotoxicity studies, HepG2 cells were seeded at 1 × 10^5 cells/mL, incubated for 48 h and viability was assessed using the Alamar Blue assay [66, 67]. […] Normalised growth and viability data (compared to untreated controls) were plotted against Log10 concentration to estimate EC50 in GraphPad (Prism v6).

[2] = Cytotoxicity CC50, differentiated THP-1, Alamar Blue; format: cell-based, human; settings: human
[3] = tested on: P. falciparum Dd2Luc intraerythrocytic trophozoites; assay: Initial screen, intraerythrocytic P. falciparum, Malaria SYBR-Green I fluorescence assay; format: cell-based, Plasmodium falciparum; settings: for activity at 2 µM / inhibition of growth at 2 µM: Plasmodium falciparum, 48 h; for initial hit against P. falciparum: 2 μM, growth reduced by ≥50%; for inhibition of growth at 2 µM: read-out: initial hit P.f
Outline: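 L. mexicana axenic amastigotes at 1 × 10^6 cells/mL exposed 72 h to compounds at 2 μM, growth read by Alamar Blue; P. falciparum trophozoites at 0.5% parasitaemia, 2% haematocrit, 48 h at 2 μM, SYBR-Green I read-out. Growth normalised to 1% DMSO; hits ≥50% growth reduction.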

in vitro = settings: human
Outline: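 Human hepatoma cells seeded at 1 × 10^5 cells/mL with two-fold serial compound dilutions, incubated 48 h at 37 °C, 5% CO2 in DMEM/10% FBS. Viability read by Alamar Blue. CC50 estimated from viability normalised to untreated controls versus log concentration.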

[4] = tested on: L. mexicana axenic amastigotes; assay: Initial screen, L. mexicana axenic amastigotes, Alamar Blue; format: cell-based, Leishmania mexicana; settings: for initial hit against L. mexicana: growth inhibited by ≥80%; for activity at 2 µM / inhibition of growth at 2 µM: Leishmania mexicana; for inhibition of growth at 2 µM: read-out: initial hit L.m
Outline: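 Purified temperate plant natural products from a commercial library (1 mg/mL in DMSO) were tested against Leishmania mexicana axenic amastigotes at a final 2 μM. Parasites were seeded at 1 × 10^6 cells/mL in 96-well plates containing 200 μL culture and incubated 72 h. Growth was measured by Alamar Blue and normalised to DMSO controls (1% v/v), with triplicates over two biological replicates (n = 6).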

[5] = Leishmania mexicana, 72 h, read-out: L. mexicana EC50, axenic amastigotes, 72 h
[6] = read-out: %growth P. falciparum, mean % growth compared to a normalised control with same concentration of DMSO solvent, initial screen
[7] = read-out: % growth L. mexicana, mean % growth compared to a normalised control with same concentration of DMSO solvent, initial screen
[8] = initial screen, compared to a normalised control with same concentration of DMSO solvent
[9] = differentiated THP-1, 48 h, read-out: THP1 CC50
[10] = read-out: mean % growth, P. falciparum, initial screen, compared to a normalised control with same concentration of DMSO solvent
[11] = read-out: mean % growth, L. mexicana, initial screen, compared to a normalised control with same concentration of DMSO solvent

Row | SMILES | EC50 [1, 5] [nM] | EC50 ([1]; Leishmania mexicana, read-out: WT EC50, L. mexicana WT axenic amastigotes) [nM] | CC50 at 48 h ([2]; THP1 CC50) [µM] | activity at 2 µM [3, 6] [%] | CC50 at 48 h (in vitro; pH 7, HepG2 CC50) [µM] | initial hit against L. mexicana ([4]; 2 μM) | activity at 2 µM [4, 7] [%] | inhibition of growth at 2 µM ([4]; 2 μM, x = initial hit) [%] | initial hit against P. falciparum [3] | inhibition of growth at 2 µM [3] [%] | CC50 at 48 h (in vitro; pH 7, HepG2 CC50, 48 h) [µM] | CC50 at 48 h ([2]; THP-1 cells differentiated into macrophages with PMA, differentiated THP-1, 48 h, read-out: THP1 CC50) [µM] | EC50 ([1]; read-out: L. mexicana EC50, axenic amastigotes, 72 h) [nM] | mean % growth, P. falciparum [3, 8] [%] | mean % growth, L. mexicana [4, 8] [%] | CC50 at 48 h [2, 9] [µM] | activity at 2 µM [3, 10] [%] | inhibition of growth at 2 µM [4] [%] | activity at 2 µM [4, 11] [%]
1 | CC1=CC(O)(CC(C)C2(C)CC=C3C4=CCC5C(C)(C)C(O)CCC5(C)C4CCC32C)OC1=O (stereo not shown) [Compound 700022] | 250 | 240 | 17 | 105 | 28 | initial hits | 0.54 | > 80 | – | – | – | – | – | – | – | – | – | – | –
2 | CC1OC(OC2C(OC(=O)C3CC[C@@H]4[C@H](C3)OC3(CC(OC(=O)/C=C/c5ccccc5)[C@@H](C)CO3)C43CO3)OC(CO)C(O)C2O)C(O)C(O)C1O (stereo partly shown) [Compound 700042] | – | – | – | 28.9 | – | – | 79.1 | – | initial hits | > 50 | 2.5 | – | – | – | – | – | – | – | –
3 | CC1=CC(O)(CC(C)C2(C)CCC3C4=CCC5C(C)(CCC(O)C5(C)C)C4=CCC32C)OC1=O (stereo not shown) [Compound 700107] | 260 | – | 27 | 96.8 | 45 | initial hits | 8.1 | > 80 | – | – | – | – | – | – | – | – | – | – | –
4 | CC1=CC(O)(CC(C)C2(C)CC=C3C4=CCC5C(C)(C)C(=O)CCC5(C)C4CCC32C)OC1=O (stereo not shown) [Compound 700136] | 210 | – | 17 | 99.9 | 28 | initial hits | -0.4 | > 80 | – | – | – | – | – | – | – | – | – | – | –
5 | C/C(=C/C(=O)CC(C)C1CCC2(C)C3=CCC4C(C)(C)C(=O)CCC4(C)C3CCC12C)C(=O)O (stereo not shown) [Compound 700240] | 510 | – | – | 77.9 | 47 | initial hits | -10.1 | > 80 | – | – | – | 13.5 | – | – | – | – | – | – | –
6 | C=C1C(=O)OC2CC(C)C3C=CC(=O)C3(C)C(OC(C)=O)C12 (stereo not shown) [Compound 701155] | – | – | – | – | – | initial hits | – | – | – | – | – | – | 230 | 55.1 | -0.28 | – | – | – | –
7 | C=C1C(=O)OC2CC(C)C3C=CC(=O)C3(C)C(OC(=O)C(C)C)C12 (stereo not shown) [Compound 701157] | 200 | – | – | – | – | initial hits | – | – | – | – | 1.3 | – | – | – | – | 0.73 | 51.9 | > 80 | 0.07
8 | C=C1C(=O)OC2CC(C)C3C=CC(=O)C3(C)C(OC(=O)C(C)CC)C12 (stereo not shown) [Compound 701158] | 240 | – | – | – | – | initial hits | – | – | initial hits | > 50 | 0.8 | – | – | – | – | 0.29 | 49 | > 80 | -1.7
9 | C=C1C(=O)OC2CC(C)C3C(OC)CC(=O)C3(C)C(OC(=O)C(C)CC)C12 (stereo not shown) [Compound 701159] | 870 | – | – | – | – | initial hits | – | > 80 | – | – | 3.4 | – | – | – | – | 1.42 | 83.7 | – | 1.5
